# Experimental data as given in patent publication US9839640B2, “Methods of treating eye diseases associated with inflammation and vascular proliferation” (OccuRx Pty Ltd, priority 2010, dated 2017).
# Experiments:
# Assay type in all cases: in vivo, rat
# [1] = Animal characteristics (8 weeks study), STZ diabetic (mRen-2) 27 rats treated with FT011; details: FT011 200 mg/kg/day (100 mg/kg bid gavage), P < 0.05 versus untreated diabetes
# Method: (§1) Ninety, six-week old female, heterozygous (mRen-2) 27 rats (St. Vincent's Hospital Animal House, Melbourne, Australia) were assigned to receive either 55 mg/kg of streptozotocin (STZ) (Sigma, St. Louis, USA) diluted in 0.1 M citrate buffer, pH 4.5 or citrate buffer alone (non-diabetic control) by tail vein injection following an overnight fast. In short term study, rats were randomly assigned to receive (n=10/group) treatment with either FT011 (100 mg/kg bid gavage) or vehicle for 8 weeks. Non-diabetic animals (n=10) served as controls. In the long term study, at 16 weeks of STZ diabetes rats were randomly assigned to either treatment (n=15/group) with, FT011 (50 mg/kg/day BID), FT011 (100 mg/kg BID) or no treatment for a further 16 weeks. Non-diabetic animals (n=15) served as controls. Each week, rats were weighed and their blood glucose levels were measured (Accu-check Advantage II Blood Glucose Monitor, Roche Diagnostics, USA) and only STZ-treated animals with blood glucose >15 mmol/L were considered diabetic. Every 4 weeks, SBP was determined in preheated conscious rats via tail-cuff plethysmography using a non-invasive blood pressure (NIBP) controller and Powerlab (AD instruments, NSW, Australia). Haemoglobin A1c (HbA1c) was measured by HPLC at the end of the study in the Department of Pathology, St Vincent's Hospital. […]
# [2] = Animal characteristics (32 weeks study), STZ diabetic (mRen-2) 27 rats treated with FT011
# Method: as §1
# leukocytes in the retina [3] = assay: Leukostasis (short term study), rhodamine-coupled Concanavalin A staining of retina
# Method: as §1
# ICAM-1 mRNA [4] = assay: Real time PCR of retinal ICAM-1 mRNA (short term study); details: FIG. 3; diabetic rats treated with FT011, short term 8 week study; normalised to 18S rRNA
# Method: as §1
# acellular capillaries = assay: Trypsin digest, acellular capillaries in PAS stained retina (long term study 32 weeks); details: diabetic rats, 100 mg/kg/day FT011, long term study
# Method: as §1
# leukocytes in the retina [5] = assay: Leukostasis, rhodamine-coupled Concanavalin A staining of retina (FT061 study)
# Method: (§2) Sixty, six-week old female, heterozygous (mRen-2) 27 rats (St. Vincent's Hospital Animal House, Melbourne, Australia) were assigned to receive either 55 mg/kg of streptozotocin (STZ) (Sigma, St. Louis, USA) diluted in 0.1 M citrate buffer, pH 4.5 or citrate buffer alone (non-diabetic control) by tail vein injection following an overnight fast. Rats were randomly assigned to receive (n=15/group) treatment with either FT061 (100 mg/kg/day gavage) or vehicle for 8 weeks. Non-diabetic animals (n=15) served as controls. Each week, rats were weighed and their blood glucose levels were measured (Accu-check Advantage II Blood Glucose Monitor, Roche Diagnostics, USA) and only STZ-treated animals with blood glucose >15 mmol/L were considered diabetic. Every 4 weeks, SBP was determined in preheated conscious rats via tail-cuff plethysmography using a non-invasive blood pressure (NIBP) controller and Powerlab (AD instruments, NSW, Australia). Diabetic rats received a daily injection of insulin (2-4 units intraperitoneally; Humulin NPH, Eli Lilly and Co., Indianapolis, Ind.) to reduce mortality and to promote weight gain.
# At the end of the study, rats were anaesthetized with Lethobarb (60 mg/kg) and the chest cavity was opened. […] The total number of leukocytes was counted per retina. […]
# ICAM-1 mRNA [6] = assay: Real time PCR of retinal ICAM-1 mRNA (FT061 study); details: FIG. 8; diabetic rats, FT061 100 mg/kg/day 8 weeks, compared to controls and untreated diabetes
# Method: as §2, with “Diabetic rats received a daily injection of insulin (2-4 units intraperitoneally; Humulin NPH, Eli Lilly and Co., Indianapolis, Ind.) to reduce mortality and to promote weight gain.” left out
# (§3) At the end of the study, rats were anaesthetized with lethobarb (60 mg/kg), eyes were enucleated and retinae dissected and placed in RNAlater (#R0901, Sigma-Aldrich). […] RNA concentration was determined on a Nanodrop 3.1.2, after which 1 μg of RNA was DNase treated (DNA-free kit, Ambion) and reverse transcribed (First Strand cDNA Synthesis Kit for RT-PCR, Roche). […]
# VEGF mRNA = assay: Real time PCR of retinal VEGF mRNA (FT061 study); details: FIG. 9; diabetic rats, FT061 100 mg/kg/day 8 weeks, compared to controls and untreated diabetes
# Method: as §2, with “Diabetic rats received a daily injection of insulin (2-4 units intraperitoneally; Humulin NPH, Eli Lilly and Co., Indianapolis, Ind.) to reduce mortality and to promote weight gain.” left out
# as §3
compound,measurement,setting,value
C#CCOc1ccc(/C=C/C(=O)Nc2ccccc2C(=O)O)cc1OC [FT011],HbA1C,[1],8.9 ± 0.50 %
same,HbA1C,"[2]; FT011 100 mk/kg/day, P < 0.05 versus control",7.65 ± 0.25 %
same,HbA1C,"[2]; FT011 200 mk/kg/day, P < 0.05 versus untreated diabetes",6.58 ± 0.37 %
same,total number of leukocytes in the retina,"leukocytes in the retina [3]; FIG. 1, diabetic rats, FT011 100 mg/kg bid gavage 8 weeks, compared to untreated diabetic rats",significantly less
same,leukostasis (representative micrographs),"leukocytes in the retina [3]; FIG. 2, diabetic rats treated with FT011, short term study",significantly reduced leukostasis
same,retinal ICAM-1 mRNA levels,ICAM-1 mRNA [4],reduction in ICAM-1 mRNA levels
same,number of acellular capillaries per field,"acellular capillaries; FIG. 4, compared to untreated diabetic rats",less acellular capillaries
same,"acellular capillaries (pericyte ghost), representative micrographs",acellular capillaries; FIG. 5,pericyte ghosts were not apparent
O=C(/C=C/c1ccc(OC(F)F)c(OC(F)F)c1)Nc1ccccc1C(=O)O [FT061],total number of leukocytes in the retina,"leukocytes in the retina [5]; FIG. 6, diabetic rats, FT061 100 mg/kg/day gavage 8 weeks, compared to untreated diabetic rats",significantly less
same,leukostasis (representative photomicrographs),"leukocytes in the retina [5]; FIG. 7, diabetic rats treated with FT061",significantly reduced leukostasis
same,retinal ICAM-1 mRNA levels,ICAM-1 mRNA [6],reduction in ICAM-1 mRNA levels
same,retinal VEGF mRNA levels,VEGF mRNA,reduction in VEGF mRNA levels
